Test results reported in article PMC10009755, “Discovery and Characterization of BAY-805, a Potent and Selective Inhibitor of Ubiquitin-Specific Protease USP21” (Journal of Medicinal Chemistry, 2023).
Like-named read-outs stand apart in the source and are kept apart here.

Columns and labels:
USP7 = biological target: T1, USP7 (Homo sapiens, UniProt Q93009); assay: Thermal shift assay (TSA); type: binding; conditions: 100 μM compound
T1 construct: purchased Ubiquigent (DUBprofiler service)

USP2 [1] = biological target: T2, USP2 (Homo sapiens, UniProt O75604); assay: Thermal shift assay (TSA); type: binding; conditions: 100 μM compound
T2 construct: His tag
T2 sequence (O75604 259-605): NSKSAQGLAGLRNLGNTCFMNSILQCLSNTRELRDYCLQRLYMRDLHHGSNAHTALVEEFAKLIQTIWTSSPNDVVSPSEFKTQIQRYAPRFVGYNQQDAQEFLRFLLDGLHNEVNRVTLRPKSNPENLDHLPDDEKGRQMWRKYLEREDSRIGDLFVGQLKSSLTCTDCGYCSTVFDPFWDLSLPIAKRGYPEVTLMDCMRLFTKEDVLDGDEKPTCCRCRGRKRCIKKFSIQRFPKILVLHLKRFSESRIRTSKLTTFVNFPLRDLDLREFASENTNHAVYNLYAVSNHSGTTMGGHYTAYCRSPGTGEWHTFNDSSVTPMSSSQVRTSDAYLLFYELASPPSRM

log D measurement (HPLC) = type: physicochemical; conditions: reverse-phase HPLC, pH 7.5, pH 7.5, HPLC method; read-out: logD7.5
Procedure: log D values at pH 7.5 were recorded using an indirect method for determining hydrophobicity constants by reverse-phase HPLC. A series of compounds with well-known log D values were used for calibration. Test compounds were injected into the same HPLC system. The lipophilicity of compounds was then assessed by comparison to the calibration curve.

USP21 [2] = biological target: T3, USP21 (Homo sapiens, UniProt Q9UK80)
T3 sequence (Q9UK80 1-565): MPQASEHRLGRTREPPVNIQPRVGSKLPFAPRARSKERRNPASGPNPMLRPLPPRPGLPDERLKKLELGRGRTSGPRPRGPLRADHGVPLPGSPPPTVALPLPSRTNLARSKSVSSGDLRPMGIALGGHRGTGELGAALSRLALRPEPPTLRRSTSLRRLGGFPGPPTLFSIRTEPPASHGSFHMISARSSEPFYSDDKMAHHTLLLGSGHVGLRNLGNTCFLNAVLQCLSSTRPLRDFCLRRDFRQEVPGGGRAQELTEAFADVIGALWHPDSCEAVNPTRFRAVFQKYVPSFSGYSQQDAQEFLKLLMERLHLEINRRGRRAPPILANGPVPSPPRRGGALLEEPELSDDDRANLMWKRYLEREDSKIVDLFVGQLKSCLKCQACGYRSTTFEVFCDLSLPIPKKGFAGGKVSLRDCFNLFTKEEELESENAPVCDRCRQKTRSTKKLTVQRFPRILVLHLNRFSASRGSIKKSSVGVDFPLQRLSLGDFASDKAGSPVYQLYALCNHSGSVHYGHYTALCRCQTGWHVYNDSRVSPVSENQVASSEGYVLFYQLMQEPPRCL

USP21 [3] = biological target: T3, USP21; assay: Ubiquitin aminoluciferin (Ub-AML) assay; type: biochemical; design: […]; ZZ tag; made in house
Procedure: The final assay volume was 8 μL. […] The reaction was stopped with 2 μL of 200 μM PR619. Then, 2 μL of luciferin detection reagent (Promega V8920/1) was used to detect luciferin at a final concentration of 0.5-fold. For the luminescence detection, 1536-well plates (Greiner, white) were measured on the ViewLux at 120 s exposure time.

USP2 [4] = biological target: T2, USP2; assay: hUSP2 Ub-rhodamine 110 assay; type: biochemical; conditions: arithmetic means of multiple measurements; read-out: IC50 hUSP2 Ub-Rhod
Procedure: The final assay volume was 6 μL.

[5] = test system: panel of 10 individual USPs; assay: SGC USP selectivity screen, whole panel; type: biochemical; conditions: 10 and 50 μM
USP21 [6] = biological target: T3, USP21; remark: listed apart in the source
USP21 [7] = biological target: T3, USP21; assay: Thermal shift assay (TSA); type: binding; design: purchased Ubiquigent (DUBprofiler service); conditions: 100 μM compound
Procedure: Experiments were carried out with the QuantStudio7 Flex Real-Time PCR system (Thermo Fisher Scientific) in a 384-well plate format with 5 μL of reaction volume. Melting curves were obtained at an USP21 protein concentration of 3.8 μM and 5xSYPRO Orange (Invitrogen) using a buffer containing 20 mM Tris, pH 7.5; 150 mM NaCl; 10% glycerol; and 1.0 mM TCEP. […] For binding experiments, compounds were added from 10 mM stock solution to a final concentration of 100 μM. As a control, 1% DMSO was used. Scans were measured from 25 to 95 °C at a scanning rate of 4 °C/min. All TSA data were analyzed using a Genedata Assay Analyzer.

USP21 [8] = biological target: T4, USP21 (Homo sapiens, UniProt Q9UK80); assay: SPR binding; conditions: equilibrium binding, 15 °C
T4 construct: made in house; host or cells: E. coli BL21(DE3)

[9] = biological target: T5, Serotonin (5-Hydroxytryptamine) 5-HT2A (Homo sapiens, UniProt P28223); assay: Eurofins Panlabs safety screen; type: binding
T5 construct: Eurofins Panlabs

Adrenergic α2A = biological target: T6, Adrenergic α2A (Homo sapiens, UniProt P08913); assay: Eurofins Panlabs safety screen; type: binding
T6 construct: Eurofins Panlabs
T6 sequence (P08913 whole entry): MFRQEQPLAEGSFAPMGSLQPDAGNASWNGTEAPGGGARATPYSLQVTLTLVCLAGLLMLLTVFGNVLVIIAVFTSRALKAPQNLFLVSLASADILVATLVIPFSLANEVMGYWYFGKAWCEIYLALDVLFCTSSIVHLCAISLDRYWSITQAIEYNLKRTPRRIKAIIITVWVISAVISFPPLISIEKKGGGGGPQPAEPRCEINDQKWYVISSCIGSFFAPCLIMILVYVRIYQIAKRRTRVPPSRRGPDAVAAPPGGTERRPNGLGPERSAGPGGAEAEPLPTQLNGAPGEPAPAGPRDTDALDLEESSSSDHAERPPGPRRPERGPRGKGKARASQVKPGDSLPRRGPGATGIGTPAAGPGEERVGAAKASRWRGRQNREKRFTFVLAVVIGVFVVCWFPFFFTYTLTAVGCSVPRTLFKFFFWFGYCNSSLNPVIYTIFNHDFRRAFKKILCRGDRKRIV

Muscarinic M4 = biological target: T7, Muscarinic M4 (Homo sapiens, UniProt P08173); assay: Eurofins Panlabs safety screen; type: binding
T7 construct: Eurofins Panlabs

Muscarinic M2 = biological target: T8, Muscarinic M2 (Homo sapiens, UniProt P08172); assay: Eurofins Panlabs safety screen; type: binding
T8 construct: Eurofins Panlabs

Dopamine D1 = Dopamine D1 (Homo sapiens, UniProt P21728); assay: Eurofins Panlabs safety screen; type: binding
Dopamine D2S = Dopamine D2S (Homo sapiens, UniProt P14416); assay: Eurofins Panlabs safety screen; type: binding
Adrenergic α1A = biological target: T9, Adrenergic α1A (Homo sapiens, UniProt P35348); assay: Eurofins Panlabs safety screen; type: binding
T9 construct: Eurofins Panlabs

[10] = biological target: T10, Serotonin (5-Hydroxytryptamine) 5-HT2C (Homo sapiens, UniProt P28335); assay: Eurofins Panlabs safety screen; type: binding
T10 construct: Eurofins Panlabs
T10 sequence (P28335 33-458): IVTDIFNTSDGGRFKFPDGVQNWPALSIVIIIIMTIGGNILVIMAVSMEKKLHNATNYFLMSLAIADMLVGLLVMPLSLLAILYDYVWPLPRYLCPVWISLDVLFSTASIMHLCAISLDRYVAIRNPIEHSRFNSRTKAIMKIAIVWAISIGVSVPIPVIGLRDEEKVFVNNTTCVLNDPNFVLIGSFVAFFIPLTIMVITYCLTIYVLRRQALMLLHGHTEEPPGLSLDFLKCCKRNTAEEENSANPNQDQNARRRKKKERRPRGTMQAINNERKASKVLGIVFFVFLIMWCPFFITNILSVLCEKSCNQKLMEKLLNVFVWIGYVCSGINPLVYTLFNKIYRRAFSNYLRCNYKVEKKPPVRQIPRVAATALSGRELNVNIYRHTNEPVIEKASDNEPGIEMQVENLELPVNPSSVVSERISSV

[11] = biological target: T11, Serotonin (5-Hydroxytryptamine) 5-HT1A (Homo sapiens, UniProt P08908); assay: Eurofins Panlabs safety screen; type: binding
T11 construct: Eurofins Panlabs

PRP4(h) = biological target: T12, PRP4(h) (Homo sapiens, UniProt Q13523); assay: Eurofins kinase panel; type: biochemical
T12 construct: purchased Eurofins (formerly Millipore/Upstate) KinaseProfiler
T12 sequence (Q13523 whole entry): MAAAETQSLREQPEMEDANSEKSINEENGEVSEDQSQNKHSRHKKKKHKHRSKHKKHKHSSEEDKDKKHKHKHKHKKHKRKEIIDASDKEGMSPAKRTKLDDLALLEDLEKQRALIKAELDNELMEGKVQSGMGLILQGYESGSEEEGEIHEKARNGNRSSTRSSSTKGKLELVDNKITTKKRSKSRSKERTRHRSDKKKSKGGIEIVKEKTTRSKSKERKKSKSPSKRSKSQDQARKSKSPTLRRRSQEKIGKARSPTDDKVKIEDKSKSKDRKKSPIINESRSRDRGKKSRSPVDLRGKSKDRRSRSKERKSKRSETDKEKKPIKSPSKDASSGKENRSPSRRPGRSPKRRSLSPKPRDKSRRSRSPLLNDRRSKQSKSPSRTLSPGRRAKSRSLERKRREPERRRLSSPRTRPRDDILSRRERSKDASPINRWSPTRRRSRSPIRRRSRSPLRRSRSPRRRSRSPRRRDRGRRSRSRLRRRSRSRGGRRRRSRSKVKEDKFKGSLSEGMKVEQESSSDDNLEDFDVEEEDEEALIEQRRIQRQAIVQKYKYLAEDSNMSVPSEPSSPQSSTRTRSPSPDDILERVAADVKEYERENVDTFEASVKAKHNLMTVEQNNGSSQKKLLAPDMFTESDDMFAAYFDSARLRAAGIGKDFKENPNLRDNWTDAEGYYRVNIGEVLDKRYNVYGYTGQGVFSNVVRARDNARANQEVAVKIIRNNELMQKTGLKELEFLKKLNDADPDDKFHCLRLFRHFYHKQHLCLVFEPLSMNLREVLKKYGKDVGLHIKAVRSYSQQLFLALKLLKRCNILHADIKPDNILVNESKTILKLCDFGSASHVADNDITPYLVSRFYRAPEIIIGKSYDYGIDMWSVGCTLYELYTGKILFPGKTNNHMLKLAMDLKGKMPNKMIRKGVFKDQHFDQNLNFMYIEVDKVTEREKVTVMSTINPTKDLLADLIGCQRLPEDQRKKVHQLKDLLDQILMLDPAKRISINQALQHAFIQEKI

Cannabinoid CB1 = Cannabinoid CB1 (Homo sapiens, UniProt P21554); assay: Eurofins Panlabs safety screen; type: binding
Sequence of Cannabinoid CB1 (P21554 whole entry): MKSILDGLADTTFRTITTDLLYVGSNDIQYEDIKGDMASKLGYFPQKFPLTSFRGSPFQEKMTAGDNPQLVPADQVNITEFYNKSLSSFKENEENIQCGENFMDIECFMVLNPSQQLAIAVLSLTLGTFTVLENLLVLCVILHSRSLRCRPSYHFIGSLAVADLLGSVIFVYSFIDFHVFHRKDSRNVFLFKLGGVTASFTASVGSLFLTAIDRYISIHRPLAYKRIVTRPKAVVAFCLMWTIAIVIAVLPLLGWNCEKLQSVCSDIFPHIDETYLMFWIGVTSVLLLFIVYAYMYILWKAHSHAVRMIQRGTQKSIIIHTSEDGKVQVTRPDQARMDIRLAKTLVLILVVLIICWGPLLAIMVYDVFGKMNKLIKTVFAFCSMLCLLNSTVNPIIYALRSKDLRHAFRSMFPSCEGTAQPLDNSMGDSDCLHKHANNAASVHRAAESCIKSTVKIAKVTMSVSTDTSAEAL

Opiate δ1 (OP1, DOP) = biological target: T13, Opiate δ1 (OP1, DOP) (Homo sapiens, UniProt P41143); assay: Eurofins Panlabs safety screen; type: binding
T13 construct: Eurofins Panlabs
T13 sequence (P41143 whole entry): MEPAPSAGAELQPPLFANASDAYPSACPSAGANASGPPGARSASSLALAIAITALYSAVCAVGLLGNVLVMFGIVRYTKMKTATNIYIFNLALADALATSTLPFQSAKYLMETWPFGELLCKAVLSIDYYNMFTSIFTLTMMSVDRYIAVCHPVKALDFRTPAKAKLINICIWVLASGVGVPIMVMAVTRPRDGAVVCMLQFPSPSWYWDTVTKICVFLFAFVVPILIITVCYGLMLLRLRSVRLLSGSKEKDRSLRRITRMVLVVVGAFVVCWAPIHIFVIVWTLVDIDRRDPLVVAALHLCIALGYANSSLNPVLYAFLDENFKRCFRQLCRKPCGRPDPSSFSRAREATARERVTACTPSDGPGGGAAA

Adrenergic α2B = biological target: T14, Adrenergic α2B (Homo sapiens, UniProt P18089); assay: Eurofins Panlabs safety screen; type: binding
T14 construct: Eurofins Panlabs

Adrenergic α2C = biological target: T15, Adrenergic α2C (Homo sapiens, UniProt P18825); assay: Eurofins Panlabs safety screen; type: binding
T15 construct: Eurofins Panlabs

Dopamine D2L = Dopamine D2L (Homo sapiens, UniProt P14416); assay: Eurofins Panlabs safety screen; type: binding
Sequence of Dopamine D2L (P14416 whole entry): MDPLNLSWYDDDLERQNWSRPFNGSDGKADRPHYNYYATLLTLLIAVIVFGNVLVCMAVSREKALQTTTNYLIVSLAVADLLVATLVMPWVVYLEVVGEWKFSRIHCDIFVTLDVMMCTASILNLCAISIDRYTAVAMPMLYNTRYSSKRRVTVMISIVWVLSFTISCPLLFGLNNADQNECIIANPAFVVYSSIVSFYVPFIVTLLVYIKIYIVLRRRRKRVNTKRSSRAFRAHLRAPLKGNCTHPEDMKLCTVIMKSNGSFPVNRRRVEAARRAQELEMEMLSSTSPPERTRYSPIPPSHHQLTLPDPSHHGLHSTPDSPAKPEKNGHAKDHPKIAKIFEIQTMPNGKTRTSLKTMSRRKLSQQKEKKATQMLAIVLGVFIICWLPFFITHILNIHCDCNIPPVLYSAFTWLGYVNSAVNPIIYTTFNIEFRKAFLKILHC

Muscarinic M3 = biological target: T16, Muscarinic M3 (Homo sapiens, UniProt P20309); assay: Eurofins Panlabs safety screen; type: binding
T16 construct: Eurofins Panlabs
T16 sequence (P20309 whole entry): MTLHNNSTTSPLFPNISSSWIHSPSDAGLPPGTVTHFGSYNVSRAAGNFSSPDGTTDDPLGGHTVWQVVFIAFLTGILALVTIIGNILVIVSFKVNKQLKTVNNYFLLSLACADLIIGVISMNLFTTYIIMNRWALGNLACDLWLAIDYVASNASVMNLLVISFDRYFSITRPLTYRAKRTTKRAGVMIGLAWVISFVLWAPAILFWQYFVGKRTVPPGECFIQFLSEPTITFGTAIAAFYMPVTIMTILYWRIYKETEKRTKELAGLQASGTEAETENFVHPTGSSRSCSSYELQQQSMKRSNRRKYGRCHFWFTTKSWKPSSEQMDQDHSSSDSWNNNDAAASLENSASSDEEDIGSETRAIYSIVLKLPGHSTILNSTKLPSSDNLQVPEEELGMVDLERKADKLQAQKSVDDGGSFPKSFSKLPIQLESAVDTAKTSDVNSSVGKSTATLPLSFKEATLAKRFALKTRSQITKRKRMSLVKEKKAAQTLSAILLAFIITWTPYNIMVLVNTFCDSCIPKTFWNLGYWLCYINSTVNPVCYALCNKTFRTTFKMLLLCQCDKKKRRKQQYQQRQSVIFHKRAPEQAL

[12] = biological target: T17, Nicotinic Acetylcholine α3β4 (Homo sapiens, UniProt P30926+P32297); assay: Eurofins Panlabs safety screen; type: binding
T17 construct: Eurofins Panlabs

Cannabinoid CB2 = Cannabinoid CB2 (Homo sapiens, UniProt P34972); assay: Eurofins Panlabs safety screen; type: binding
[13] = biological target: T18, Cholinesterase, Acetyl, ACES (Homo sapiens, UniProt P22303); assay: Eurofins Panlabs safety screen; type: biochemical
T18 construct: Eurofins Panlabs
T18 sequence (P22303 32-614): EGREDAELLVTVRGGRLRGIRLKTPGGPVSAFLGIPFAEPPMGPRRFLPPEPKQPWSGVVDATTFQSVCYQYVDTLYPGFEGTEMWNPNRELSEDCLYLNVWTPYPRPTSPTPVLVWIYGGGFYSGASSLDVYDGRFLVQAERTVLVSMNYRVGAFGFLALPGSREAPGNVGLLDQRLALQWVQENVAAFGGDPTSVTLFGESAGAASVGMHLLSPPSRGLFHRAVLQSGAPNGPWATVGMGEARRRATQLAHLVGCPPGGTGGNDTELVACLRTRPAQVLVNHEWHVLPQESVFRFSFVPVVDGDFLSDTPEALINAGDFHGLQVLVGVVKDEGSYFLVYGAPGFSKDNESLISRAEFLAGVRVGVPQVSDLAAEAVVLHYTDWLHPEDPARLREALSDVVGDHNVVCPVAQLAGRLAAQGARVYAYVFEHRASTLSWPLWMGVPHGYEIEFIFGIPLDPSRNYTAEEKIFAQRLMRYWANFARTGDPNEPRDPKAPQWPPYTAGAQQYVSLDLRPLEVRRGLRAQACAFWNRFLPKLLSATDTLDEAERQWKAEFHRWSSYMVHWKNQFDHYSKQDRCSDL

Androgen (Testosterone) = Androgen (Testosterone) (Homo sapiens, UniProt P10275); assay: Eurofins Panlabs safety screen; type: binding
[14] = biological target: T19, Serotonin (5-Hydroxytryptamine) 5-HT2B (Homo sapiens, UniProt P41595); assay: Eurofins Panlabs safety screen; type: binding
T19 construct: Eurofins Panlabs

Opiate μ (OP3, MOP) = biological target: T20, Opiate μ (OP3, MOP) (Homo sapiens, UniProt P35372); assay: Eurofins Panlabs safety screen; type: binding
T20 construct: Eurofins Panlabs

Fms(h) = biological target: T21, Fms(h) (Homo sapiens, UniProt P07333); assay: Eurofins kinase panel; type: biochemical
T21 construct: purchased Eurofins (formerly Millipore/Upstate) KinaseProfiler

Muscarinic M1 = biological target: T22, Muscarinic M1 (Homo sapiens, UniProt P11229); assay: Eurofins Panlabs safety screen; type: binding
T22 construct: Eurofins Panlabs
T22 sequence (P11229 whole entry): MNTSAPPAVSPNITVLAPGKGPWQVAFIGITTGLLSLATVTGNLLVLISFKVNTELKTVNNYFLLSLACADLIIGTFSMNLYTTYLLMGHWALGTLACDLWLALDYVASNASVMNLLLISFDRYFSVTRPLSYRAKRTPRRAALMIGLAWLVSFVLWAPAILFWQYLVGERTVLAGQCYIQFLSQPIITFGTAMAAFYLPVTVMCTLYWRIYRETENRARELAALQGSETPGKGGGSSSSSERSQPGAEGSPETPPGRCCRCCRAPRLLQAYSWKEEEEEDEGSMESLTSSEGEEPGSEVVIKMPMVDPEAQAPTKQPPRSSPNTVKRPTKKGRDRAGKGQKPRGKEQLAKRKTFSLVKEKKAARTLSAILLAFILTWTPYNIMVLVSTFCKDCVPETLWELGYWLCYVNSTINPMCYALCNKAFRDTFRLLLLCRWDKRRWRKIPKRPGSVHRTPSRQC

Dopamine D3 = Dopamine D3 (Homo sapiens, UniProt P35462); assay: Eurofins Panlabs safety screen; type: binding
Opiate κ (OP2, KOP) = biological target: T23, Opiate κ (OP2, KOP) (Homo sapiens, UniProt P41145); assay: Eurofins Panlabs safety screen; type: binding
T23 construct: Eurofins Panlabs

SMILES	inhibition at 10 µM [9] [%]	inhibition at 10 µM (Adrenergic α2A) [%]	inhibition at 10 µM (Muscarinic M4) [%]	inhibition at 10 µM (Muscarinic M2) [%]	inhibition at 10 µM (Dopamine D1) [%]	inhibition at 10 µM (Dopamine D2S) [%]	inhibition at 10 µM (Adrenergic α1A) [%]	inhibition at 10 µM [10] [%]	inhibition at 10 µM [11] [%]	inhibition at 10 µM (PRP4(h)) [%]	inhibition at 10 µM (Cannabinoid CB1) [%]	inhibition at 10 µM (Opiate δ1 (OP1, DOP)) [%]	inhibition at 10 µM (Adrenergic α2B) [%]	inhibition at 10 µM (Adrenergic α2C) [%]	inhibition at 10 µM (Dopamine D2L) [%]	inhibition at 10 µM (Muscarinic M3) [%]	inhibition at 10 µM [12] [%]	inhibition at 10 µM (Cannabinoid CB2) [%]	IC50 [13] [µM]	inhibition at 10 µM [13] [%]	other results
CC(NC(=O)C1CCCC1)C(=O)Nc1nnc(Cc2ccc([N+](=O)[O-])cc2)s1 (stereo not drawn) [Compound 1, CC(NC(=O)C1CCCC1)C(=O)Nc2nnc(Cc3ccc(cc3)[N+](=O)[O-])s2]	–	–	–	–	–	–	–	–	–	–	–	–	–	–	–	–	–	–	–	–	ΔTm at 100 µM (USP7): 0 °C; ΔTm at 100 µM (USP2 [1]): 0 °C; chromatographic logD (log D measurement (HPLC)): 2.3; IC50 (USP21 [2]): 11.8 µM; IC50 (USP21 [3]): > 22.5 µM; IC50 (USP2 [4]): > 25 µM; inhibition of other tested DUB targets besides USP21 [5]: ≤ 50%; IC50 (USP21 [6]): > 22.5 µM; ΔTm at 100 µM (USP21 [7]): 4.9 °C; Kd (USP21 [8]): 7.87 µM
CC(C)C[C@@H](NC(=O)C1(C(F)(F)F)CCCCC1)C(=O)Nc1nnc(Cc2ccc(C#N)cc2)s1 [Compound 21, N-[(1R)-1-[[5-[(4-Cyanophenyl)methyl]-1,3,4-thiadiazol-2-yl]carbamoyl]-3-methyl-butyl]-1-(trifluoromethyl)cyclohexanecarboxamide]	4	14	-4	2	-3	24	1	-5	2	8.18	8	-5	4	6	8	7	-3	1	7.61	72	inhibition at 0.1 µM ([13]; IC50 determination): 15%; inhibition at 0.3 µM ([13]; IC50 determination): 16%; inhibition at 1 µM ([13]; IC50 determination): 11%; inhibition at 3 µM ([13]; IC50 determination): 4%; inhibition at 10 µM ([13]; IC50 determination): 74%; inhibition at 30 µM ([13]; IC50 determination): 74%; inhibition at 10 µM (Androgen (Testosterone)): 4%; inhibition at 10 µM [14]: 3%; inhibition at 10 µM (Opiate μ (OP3, MOP)): -1%; inhibition at 10 µM (Fms(h)): 3.41%; inhibition at 10 µM (Muscarinic M1): 18%; inhibition at 10 µM (Dopamine D3): 9%
CC(C)C[C@H](NC(=O)C1(C(F)(F)F)CCCCC1)C(=O)Nc1nnc(Cc2ccc(C#N)cc2)s1 [Compound 22, CC(C)C[C@H](NC(=O)C1(CCCCC1)C(F)(F)F)C(=O)Nc2nnc(Cc3ccc(cc3)C#N)s2]	2	13	-8	24	2	25	13	14	5	-7.38	3	5	1	12	17	4	-1	4	6.87	75	inhibition at 10 µM (Opiate κ (OP2, KOP)): 12%; inhibition at 0.1 µM ([13]; IC50 determination): 18%; inhibition at 0.3 µM ([13]; IC50 determination): 4%; inhibition at 1 µM ([13]; IC50 determination): 19%; inhibition at 3 µM ([13]; IC50 determination): 8%; inhibition at 10 µM ([13]; IC50 determination): 76%; inhibition at 30 µM ([13]; IC50 determination): 78%; inhibition at 10 µM (Androgen (Testosterone)): 7%; inhibition at 10 µM [14]: 2%; inhibition at 10 µM (Opiate μ (OP3, MOP)): -3%; inhibition at 10 µM (Fms(h)): 0.62%; inhibition at 10 µM (Muscarinic M1): 36%; inhibition at 10 µM (Dopamine D3): 2%
